The values that follow come from US4886826A, “Substituted 2,3,4,9-tetrahydro-1H-carbazole-1-acetic acid derivatives, composition and use” (American Home Products Corporation, priority 1989, dated 1989).

Read-outs that look alike come from different tables or passages of the source.

Assay [1] concerns lipoxygenase. Briefly: Rat Polymorphonuclear Leukocyte Assay, lipoxygenase products (leukotriene B4, 5-HETE). It is filed as cell-based. The following applies: 10 min, 10 μM drug concentration, minus=decrease, plus=increase relative to control (no drug), A23187-stimulated, 3H arachidonic acid. As to the method:
(§1) A test for lipoxygenase and cyclooxygenase inhibitory activity is the Rat Polymorphonuclear Leukocyte Assay. The assay is carried out as follows: glycogen-elicited rat peritoneal cells (10^7 /1.0 mL) are incubated (37° C.)±drug in a shaking water bath for 10 minutes. One micromolar (final concentration) ^3 H arachidonic acid (2.0 μCi) is then added to each sample followed by the immediate addition of 1.0 micromolar A23187* (final concentration). The cells are incubated another 10 minutes and the reaction is stopped by high-speed centrifugation. Supernatants are then analyzed by HPLC using an in-line radioactivity detector. […] Results are qualitatively expressed as a percent change (minus=decrease, plus=increase) relative to the control (no drug). [drawing 20]

Assay [2] concerns cyclooxygenase. Briefly: Rat Polymorphonuclear Leukocyte Assay, cyclooxygenase products (thromboxane B2, prostaglandin E2). It is filed as cell-based. Particulars: 10 min, 10 μM drug concentration, minus=decrease, plus=increase relative to control (no drug), A23187-stimulated, 3H arachidonic acid. As for the experimental part: as §1
The test system of assay [3] is Phenylbenzoquinone-induced writhing in mice. Briefly: Phenylbenzoquinone-induced Writhing in Mice (analgesic activity). It is filed as in vivo, Male Swiss albino mice. Particulars: 10 mg/kg, p.o.; mouse; writhes in 15 minutes, PBQ i.p. 60 minutes after dosing. As for the experimental part:
A further test used to determine the utility of the compounds of the present invention is designated: Drug Effects on Phenylbenzoquinone-induced Writhing in Mice.
The objective of this test is to determine the ability of test drugs to inhibit the nociceptive (pain) response of mice injected with a chemical irritant. This test is a primary screen for both peripherally and centrally acting analgesic drugs.
Male Swiss albino mice (15-25 g) are used. The animals are fasted for 18 hours prior to use but have free access to water.
Drugs are dissolved or suspended according to their solubility in 0.5% Tween 80 in distilled water. They are administered by gastric gavage in a volume of 5 mL/kg. For primary screening all drugs are administered at the arbitrary dosage of 10 mg/kg, p.o. to a group of 10 mice.
A modification of the method of Siegmund et al., Proc. Soc. Exp. Biol. Med., 95, 729-731 (1957) is used. Groups of 5 mice are dosed with the test compound or vehicle control. Sixty minutes later the animals are injected i.p. with 0.3 mL/20 g body weight of a 0.02% solution of phenylbenzoquinone (PBQ; 2-phenyl-1,4-benzoquinone) and placed in individual observation boxes. The number of writhes or abdominal squirming movements made by each mouse during the following 15 minute period is counted. The experiment is repeated with another group of 5 mice and the mean number of writhes per mouse for a group of 10 mice is calculated.
Drug-treated and vehicle-treated control groups are compared and the percentage protection conferred by the drug is calculated: [formula] where c=mean number of writhes in the control group where t=mean number of writhes in the test drug group

The test system of assay [4] is Freund's complete adjuvant-induced hind paw edema in rats. Kind of assay: Preventative Adjuvant Edema (Freund's complete adjuvant hind paw edema, acute anti-inflammatory effect). The following applies: 25 mg/kg, p.o.; rat; edema volume day 0 to day 3. It is filed as in vivo, Male Sprague Dawley rats. As for the experimental part:
This test is a primary screen for anti-inflammatory drugs.
Male Sprague Dawley rats (180-200 g) are used. The animals have free access to water but food is withdrawn 18 hours before testing.
Freund's complete adjuvant is prepared by suspending 5 mg of killed and dried Mycobacterium butyricum (Difco) in 1 mL liquid paraffin. The test compounds are dissolved in distilled water or suspended in 0.5% Tween 80 in distilled water according to their solubility. For primary screening all drugs are administered by gastric gavage at the arbitrary dosage of 25 mg/kg, p.o. in a volume of 0.5 mL/100 g body weight to groups of 10 animals.
The method is essentially that described by Wax et al, J. Pharmacol. Exp. Ther., 192, 166-171 (1975). Groups of rats are injected intradermally in the left hind paw with 0.1 mL of Freund's complete adjuvant. The test compound or vehicle is administered immediately before the adjuvant, 24 hours and 48 hours after the adjuvant (days 0, 1 and 2). The injected hind paw volume is measured before the injection of adjuvant and 24 hours after the last drug administration (day 3) by means of a plethysomometer (Buxco Electronics Inc.). The difference between the hind paw volume on day 0 and day 3 represents the edema volume. Etodolac (25 mg/kg, p.o.) is included as a positive control.
The mean edema volume (expressed as mL±SEM) is calculated for each group and the percentage inhibition of inflammation conferred by the drug is calculated: [formula] where c is the mean edema volume for the untreated controls and t is the mean edema volume for the drug treated group.

The mark [5] stands for this setting: read-out: % change 5-HETE (5-hydroxyeicosatetraenoic acid).
Setting [6] is: read-out: % change leukotriene B4.
The mark [7] stands for this setting: read-out: % change prostaglandin E2.
The mark [8] stands for this setting: read-out: % change thromboxane B2.

The term % Inhibition denotes the share of the control response that was lost under treatment. Consider `C=CC/C=C\C[C@H]1CC[C@@](CC)(CC(=O)O)c2[nH]c3c(C)cccc3c21` (relative stereo) [Example 4, [1, 4 (Z)]-1-Ethyl-4-(2,5-hexadienyl)-2,3,4,9-tetrahydro-8-methyl-1H-carbazole-1-acetic Acid], for which the inhibition at 10 µM in assay [1] (setting [5]) was 94%; in assay [1] (setting [6]) it was 94%; in assay [2] (setting [7]), 19%; in assay [2] (setting [8]), 88%. Moreover, the entries for the “% Inhibition” value in assay [3] and in assay [4] were 23% and 43%, respectively.
Take `C=CCCCCC1CCC(CC)(CC(=O)O)c2[nH]c3c(CC)cccc3c21` (single isomer, unassigned) [Example 1, 1,8-Diethyl-4(5-hexenyl)-2,3,4,9-tetrahydro-1H-carbazole-1-acetic Acid]: the inhibition at 10 µM stood at 92% in assay [1] (setting [5]), 93% in assay [1] (setting [6]), 31% in assay [2] (setting [7]) and 82% in assay [2] (setting [8]). Besides, the “% Inhibition” value in assay [3] and in assay [4] was 0% each time.
For `C=CCCCCC1CCC(CC)(CC(=O)O)c2[nH]c3c(C)cccc3c21` (single isomer, unassigned; isomer b) [Example 2, 1-Ethyl-4-(5-hexenyl)-2,3,4,9-tetrahydro-8-methyl-1H-carbazole-1-acetic Acid (Isomer B)], the inhibition at 10 µM is 92% in assay [1] (setting [5]), 95% in assay [1] (setting [6]), -22% in assay [2] (setting [7]) and 80% in assay [2] (setting [8]). The entries for the “% Inhibition” value in assay [3] and in assay [4] were 0% and 28%, respectively.
Regarding `C=CCCCCC1CCC(CC)(CC(=O)O)c2[nH]c3c(C)cccc3c21` (single isomer, unassigned; isomer a) [Example 3, 1-Ethyl-4-(5-hexenyl)-2,3,4,9-tetrahydro-8-methyl-1H-carbazole-1-acetic Acid (Isomer A)], the entries for the “% Inhibition” value in assay [3] and in assay [4] were 10% and 19%, respectively.
